Laboratory results published in US6914121B2, “PEG-LHRH analog conjugates” (Applied Research Systems Ars Holding N.V., priority 1998, dated 2005).
≈ marks a conversion by molar mass, not a printed value. Square brackets hold non-standard residues; d marks the D form. Peptide text beside a SMILES is read from it. * marks the point of attachment. Phe(4-Cl) = N[CH](Cc1ccc(Cl)cc1)C(=O)O; 2Nal = N[CH](Cc1ccc2ccccc2c1)C(=O)O; Lys(iPr) = CC(C)NCCCC[CH](N)C(=O)O; 3Pal = N[CH](Cc1cccnc1)C(=O)O; Nicotinoyl = O=C(c1cccnc1)*

Tests used:
[1] = previous formulations, e.g. antide 1 mg/ml in 5% glucose; cited from earlier work
[2] = Solubility of antide in isotonic media; type: physicochemical

solubility ([2]; 0.9% NaCl solution): 25 µg/mL (≈ 15.7 µM) | solubility ([2]; phosphate buffered saline): 16 µg/mL (≈ 10.1 µM)
SMILES: CC(=O)NC(Cc1ccc2ccccc2c1)C(=O)NC(Cc1ccc(Cl)cc1)C(=O)NC(Cc1cccnc1)C(=O)NC(CO)C(=O)NC(CCCCNC(=O)c1cccnc1)C(=O)NC(CCCCNC(=O)c1cccnc1)C(=O)NC(CC(C)C)C(=O)NC(CCCCNC(C)C)C(=O)N1CCCC1C(=O)NC(C)C(N)=O (stereo not drawn) [antide] (Ac-[2Nal][Phe(4-Cl)][3Pal]SK(Nicotinoyl)K(Nicotinoyl)L[Lys(iPr)]PA-NH2; configuration not given here)
bioavailability [1]: poor bioavailability
